Data: patent publication US20070117180A1, “Enzyme producing plasma protein fragment having inhibitory activity to metastasis and growth of cancer and plasma protein fragment produced by fragmentation by said enzyme” (priority 1998, published 2007)

Experiments:
[1] = system: vascular endothelial cells; experiment: Inhibitory activity to growth of the vascular endothelial cells of plasma protein fragments produced by PACE4; format: cell-based; conditions: as described in Example 13
Excerpt: (§1) The present inventors focused on fibronectin, a plasma component that is produced in great deal under cancerous conditions and is deeply involved in cell adhesion, and cleaved this with the enzyme of the present invention. […] The degraded products produced by the enzyme from fibronectin were separated with heparin Sepharose (Pharmacia). […] The obtained degraded products were estimated for their inhibitory activity to vascularization in the vascular endothelial cell system as described above.
Moreover, the present inventors also cleaved several kinds of fractions obtained from alcoholic fractionation of plasma proteins with the enzyme of the present invention. Alcohol was removed from alcoholic fractions by dialysis, followed by dialysis with citric phosphate buffer (pH 4.0). The resulting fractions were mixed with the enzyme at a ratio of the protein to the enzyme, 100:1, and the mixture was reacted at 38° C. overnight. […]
A test for inhibitory activity to growth of vascular endothelial cells was performed as described by Gately et al. using Human Umbilical vein endothelial (HUV) cells (HUVEC; Sanko Jun-yaku K.K.). […] The cells were peeled off the well with trypsin/EDTA solution and counted with Coulter counter (manufactured by Coulter). […]

[2] = system: BCE (Bovine capillary endothelial); experiment: Inhibition of BCE vascular growth by fibronectin degraded products; format: cell-based
Excerpt: as §1

[3] = system: plasmin; experiment: Remaining plasmin activity after cleavage by PACE4 (FIG. 8); format: biochemical; conditions: with passage of time of cleavage by PACE4
Excerpt: Moreover, the enzyme of the present invention, producing angiostatin that comprises Kringles 1 to 4, also cleaves plasmin in the vicinity of its active center (between the 699th Phe and 700th Ala) to let plasmin be inactivated. This cleaving property of the enzyme is quite significant in view of efficient protection against cancer development. This is because angiostatin that inhibits growth of cancer is produced by fragmentation of plasminogen while the simultaneously produced active center of plasmin (plasmin serine protease domain) possibly further promotes cancer development. In addition, it is possible that vascularization and cancer invasion accelerated by the plasmin activity is further accelerated by removal of the Kringle domains. This is because such removal of the Kringle domains would attenuate the inhibitory activity of plasmin-inhibitory proteins occurring within the living body, including alpha 2 plasmin inhibitor (hereinafter referred to as “α2-PI”). Plasmin present in plasma is immediately inactivated by α2-PI circulating in the blood stream wherein the Kringle domains serve as a binding site between plasmin and α2-PI. Deprivation of the domains much reduces the activity of […]. […]

[4] = system: plasminogen; experiment: Fragmentation of plasminogen by purified PACE4 at pH 7.0 or pH 4.0 (FIG. 6); format: biochemical, human; conditions: reacted at neutral and acidic ranges of pH
Experimental: FIG. 6 depicts fragmentation patterns of plasminogen when reacted at neutral and acidic ranges of pH. […] In FIG. 6, the arrow A (→A) indicates a band corresponding to angiostatin from PC-3 according to Gately et al. whereas the arrow B (→B) indicates a band corresponding to a fragment comprising Kringles 1 to 4 produced by PACE4. […] The N-terminal amino acid residue of each fragment was analyzed to be F-74 for A, P-452 for B and A-700 for C, respectively.

[5] = system: Lewis lung cancer cells; experiment: Inhibitory activity of PACE4 to growth of metastasized cancerous focus in immunodeficient mice (lung weight, FIG. 9); format: in vivo, immunodeficient (Scid) mice
Excerpt: As a system for estimating inhibitory effects to growth of metastasized cancerous focus of PACE4 per se, immunodeficient (Scid) mice were employed. Lung cancer cells (3LL; provided from Cell Resource Center for Biomedical Research, Institute of Development, Aging and Cancer, Tohoku University) were subcutaneously transplanted to Scid mice at the back. The animals were bred until a primary cancerous focus grows up to a predetermined size. So that severity of disease conditions is taken into consideration, mice were divided into two groups based on the size of a primary cancerous focus; one with a primary cancerous focus weighing not more than 1200 mg and the other with a primary cancerous focus weighing more than 1200 mg. The primary cancerous focus in each group was removed surgically. Each group was then further divided into three groups: a group receiving a high or low concentration of PACE4, and a control group. The sample was administered to mice intraperitoneally at 40 μg/mouse/day or 8 μg/mouse/day for 10 days. As a control, the same amount of physiological saline, as used for dissolving the lyophilized sample, was administered to mice.
After completion of test, mice were dissected and the lung was weighed and compared with the control group (Mann Whetney U test).
To immunodeficient mice of 6 weeks old were transplanted subcutaneously 10^6 Lewis lung cancer cells (LL/2) at the back. The animals were bred for 14 to 17 days and cancer (primary cancerous focus) formed at the back was surgically removed. Based on size of the primary cancerous focus formed, the animals were divided into two groups: one with the primary cancerous focus of not more than 1200 mg (200 mg to 1200 mg) and the other of more than 1200 mg (1201 mg to 2500 mg). Each of these two groups was further divided into three groups: ones that received a high or low dose of the enzyme of the present invention (PACE4) and control. […]

[6] = system: bovine aorta endothelial (BAE) cells; experiment: Test for inhibitory activity to growth of vascular endothelial cells, bovine aorta endothelial cells; format: cell-based; set-up: dose or concentration left out as unconfirmed; conditions: cell count after 72 hours; plasminogen fragments
Experimental: The activity of the plasminogen fragments was also estimated as described by O'Reilly et al. using bovine aorta endothelial (BAE) cells purchased from Sanko Jun-yaku K.K. BAE cells were cultured for maintenance on a 24-well plate (manufactured by Iwaki Glass K.K.) coated with gelatin in a DMEM basal medium containing 10% fetal calf serum (FCS), 3 ng/ml basic FGF (bFGF), 1% glutamine, 1% penicillin and 1% streptomycin at 5% CO2. BAE cells were plated on a 24-well gelatin-coated plate at 12,500 cells/well and cultured on the basal medium deprived of bFGF for 24 hours. […] contained 5% FCS but was deprived of bFGF and the plasminogen fragments were reacted with the cells at 37° C. for 20 minutes. A physiological saline was used as a negative control whereas angiostatin (Angiostatin, manufactured by Technoclone) was used as a positive control. After reaction, the basal medium containing 5% FCS and 2 ng/ml bFGF was added and the cells were cultured at 37° C. for additional 72 hours. The cells were peeled off the well with trypsin/EDTA solution and counted with Coulter counter (manufactured by Coulter).

In the case of fibronectin, the “growth of the vascular endothelial cells (FIG. 15)” value [1] is reported as “no such inhibitory activity” and the “inhibitory ability to BCE vascular growth” value [2] is reported as “not found”.

With “PACE4: about 45 kDa aspartic enzyme purified from PC-3 culture supernatant, N-terminus LVRIPLHKFT, high homology to human cathepsin D precursor” the remaining plasmin activity [3] was “plasmin activity disappears”, the “pH range at which plasminogen is fragmented” value [4] was “only at an acidic range of pH” and the “inhibitory activity to growth of metastasized cancerous focus (lung weight)” value ([5]; primary cancerous focus more than 1200 mg (B), 40 or 8 μg/mouse/day i.p. for 10 days, 3LL cells) was “exhibited inhibitory activity to growth of metastasized cancerous focus in a concentration dependent manner”. The “inhibitory activity to increase in lung weight” value ([5]; primary cancerous focus more than 1200 mg, 10 or 2 μg/animal i.p. for 10 days, LL/2 cells) was “observed in a dose dependent manner” and the “lung weight, PACE4 administration versus control” value ([5]; primary cancerous focus not more than 1200 mg, 10 or 2 μg/animal i.p. for 10 days, LL/2 cells) was “no significant difference”.

For angiostatin [reference compound], the “inhibitory activity to growth of the vascular endothelial cells” value [6] was “exhibited the inhibitory activity”.
